Measurements taken from patent US20260250320A1, “LIPIDATED PEPTIDE INHIBITORS OF INTERLEUKIN-23 RECEPTOR” (Janssen Pharmaceutica NV, priority 2023, published 2026).
*1 amine or outer side, *2 acyl side, *3 side chain or, on linkers, in order; H or OH if unused. Where a SMILES comes first, the peptide text is derived from it. Bridges are numbered along the chain shown (N, C = ends). Side-chain parts run from the residue outwards. [ ]: non-standard residue; d: D form. The star is where a group is joined. Me3N+(CH2)2O(CH2)2O(CH2)2CO = C[N+](C)(C)CCOCCOCCC(=O)*; PEG12 = NCCOCCOCCOCCOCCOCCOCCOCCOCCOCCOCCOCCOCCC(=O)O; Trp(7-Me) = Cc1cccc2c(C[C@H](N)C(=O)O)c[nH]c12; C20 diacid = O=C(O)CCCCCCCCCCCCCCCCCCC(=O)*; Abu(4-yl) = O=C([C@H](CC[*:3])N[*:1])[*:2]; C18 diacid = O=C(O)CCCCCCCCCCCCCCCCC(=O)*; γGlu = O=C(O)[C@H](CCC(=O)[*:2])N[*:1]; 2Nal = N[C@@H](Cc1ccc2ccccc2c1)C(=O)O; AEF = NCCOc1ccc(C[C@H](N)C(=O)O)cc1; X2 = C[N+](C)(C)C[C@@H](CC(=O)O)N*; 3Pal = N[C@@H](Cc1cccnc1)C(=O)O; Lys(Me) = CNCCCC[C@H](N)C(=O)O; NMeK = CN[C@@H](CCCCN)C(=O)O; Pen = CC(C)(S)[C@H](N)C(=O)O; Suc = O=C(CCC(=O)[*:2])[*:1]; Lauroyl = CCCCCCCCCCCC(=O)*; αMeC = C[C@](N)(CS)C(=O)O; Thp = NC1(C(=O)O)CCOCC1; X1 = C[N+](C)(C)CCCCC*; AEEA = NCCOCCOCC(=O)O; Sar = CNCC(=O)O

The compounds below were run against T1, IL-23R (Homo sapiens, UniProt Q5VWK5) (assay: IL23R Reporter Assay). Conditions: HEK293 cells containing IL-23R, IL-12Rβ1 and STAT-inducible firefly luciferase reporter; 10 ng/mL IL-23 (EC90); 5 h.
T1 construct: HEK293 cells containing IL-23R, IL-12Rβ1 and a firefly luciferase reporter gene driven by a STAT-inducible promoter (Promega); host or cells: HEK293
T1 sequence (Q5VWK5 24-629): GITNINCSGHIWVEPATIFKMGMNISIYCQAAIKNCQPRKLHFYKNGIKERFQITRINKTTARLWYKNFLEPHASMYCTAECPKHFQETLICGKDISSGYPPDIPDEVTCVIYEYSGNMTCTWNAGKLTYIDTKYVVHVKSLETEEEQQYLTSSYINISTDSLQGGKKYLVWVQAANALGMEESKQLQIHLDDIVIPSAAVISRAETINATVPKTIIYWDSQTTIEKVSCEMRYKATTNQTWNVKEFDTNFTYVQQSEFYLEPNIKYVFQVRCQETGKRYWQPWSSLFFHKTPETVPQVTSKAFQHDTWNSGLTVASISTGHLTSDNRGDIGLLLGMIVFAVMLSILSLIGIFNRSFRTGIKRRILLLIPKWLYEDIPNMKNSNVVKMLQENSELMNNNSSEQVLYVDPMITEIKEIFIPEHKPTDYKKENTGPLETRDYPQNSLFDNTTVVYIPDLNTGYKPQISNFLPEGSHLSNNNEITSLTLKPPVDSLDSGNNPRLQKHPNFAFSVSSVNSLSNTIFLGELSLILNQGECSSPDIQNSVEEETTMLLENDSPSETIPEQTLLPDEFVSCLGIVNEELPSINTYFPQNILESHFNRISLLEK
Type: cell-based
Experimental: Compounds were serially diluted in 100% (v/v) DMSO) and plated using an Echo acoustic dispenser (Labcyte) into 1536-well non-treated black assay plates (Corning #9146). 3 μL of HEK293 cells containing IL-23R, IL-12Rβ1 and a firefly luciferase reporter gene driven by a STAT-inducible promoter (Promega) were added to the plates (4000 cells/well), followed by 3 μL of 10 ng/mL IL-23 (equivalent to EC90 concentration). After 5 h at 37° C., 5% CO2, 95% relative humidity, cells were placed at 20° C. and treated with BioGlo reagent (Promega) according to the Manufacturer's instructions. Luminescence was measured on a Pherastar FSX (BMG LabTech). Data were normalized to IL-23 treatment (0% inhibition) and 30 μM of control inhibitor (100% inhibition), and IC50 values were determined using a 4-parameter Hill equation.

| SMILES | IC50 [nM] |
| --- | --- |
| CCCCCCCCCCCCCC(=O)N(C)CC(=O)N[C@@H](CO)C(=O)N(C)CC(=O)N[C@@H](CO)C(=O)N(C)CC(=O)N[C@@H](CO)C(=O)N(C)CC(=O)NCCCC[C@H](NC(=O)CN(C)C(=O)[C@H](Cc1cccnc1)NC(=O)[C@H](CC(N)=O)NC(=O)[C@H](CCC(=O)O)NC(=O)C1(NC(=O)[C@H](Cc2ccc3ccccc3c2)NC(=O)[C@H](Cc2ccc(OCCN)cc2)NC(=O)C2NC(=O)[C@H](CCCCNC(C)=O)NC(=O)[C@H](Cc3c[nH]c4c(C)cccc34)NC(=O)[C@H]([C@@H](C)O)NC(=O)[C@H](CC(N)=O)NC(=O)[C@@H](NC(C)=O)C(C)(C)SSC2(C)C)CCOCC1)C(N)=O (stereo partly drawn) [compound 1, MeCO-Pen(3)-N-T-7MeW-K(Ac)-Pen(3)-AEF-2Nal-THP-E-N-3Pya-Sar-K(Sar-S-Sar-S-Sar-S-Sar-C14)-CONH2] | < 50 |
| CCCCCCCCCCCC(=O)N[C@@H](CCC(=O)NCCOCCOCC(=O)NCCOCCOCC(=O)N[C@H](CCCNC(=N)N)C(=O)N[C@H]1CCSC[C@@](C)(C(=O)N[C@@H](Cc2ccc(OCCN)cc2)C(=O)N[C@@H](Cc2ccc3ccccc3c2)C(=O)NC2(C(=O)N[C@@H](CCC(=O)O)C(=O)N[C@@H](CC(N)=O)C(=O)N[C@@H](Cc3cccnc3)C(=O)N(C)CC(N)=O)CCOCC2)NC(=O)[C@H](CCCCNC(C)=O)NC(=O)[C@H](Cc2c[nH]c3c(C)cccc23)NC(=O)[C@H]([C@@H](C)O)NC(=O)[C@H](CC(N)=O)NC1=O)C(=O)O [compound 6, C12gEPEG2PEG2CO-r-Abu(1)-N-T-7MeW-K(Ac)-aMeC(1)-AEF-2Nal-THP-E-N-ePya-Sar CONH2] ({Lauroyl-γGlu-AEEA-AEEA}-[dR][Abu(4-yl)]NT[Trp(7-Me)]K(Ac)[αMeC][AEF][2Nal][Thp]EN[3Pal][Sar]-NH2; thioether 2-7) | < 50 |
| CC(=O)N[C@H](CCCNC(=N)N)C(=O)N[C@@H]1C(=O)N[C@@H](CC(N)=O)C(=O)N[C@@H]([C@@H](C)O)C(=O)N[C@@H](Cc2c[nH]c3c(C)cccc23)C(=O)N[C@@H](CCCCNC(=O)CCC(=O)N[C@H](CC(=O)O)C[N+](C)(C)C)C(=O)N[C@H](C(=O)N[C@@H](Cc2ccc(OCCN)cc2)C(=O)N[C@@H](Cc2ccc3ccccc3c2)C(=O)NC2(C(=O)N[C@@H](CCC(=O)O)C(=O)N[C@@H](CC(N)=O)C(=O)N[C@@H](Cc3cccnc3)C(=O)N(C)[C@@H](CCCCNC(=O)COCCOCCNC(=O)COCCOCCNC(=O)CC[C@H](NC(=O)CCCCCCCCCCCCCCCCC(=O)O)C(=O)O)C(N)=O)CCOCC2)C(C)(C)SSC1(C)C [compound 29, MeCO-r-Pen(3)-N-T-7MeW-K(D)-Pen(3)-AEF-2Nal-THP-E-N-3Pya-NMeK(PEG2PEG2gEC18OH)-CONH2] (Ac-[dR][Pen]NT[Trp(7-Me)]K([Suc-X2])[Pen][AEF][2Nal][Thp]EN[3Pal][NMeK]([AEEA-AEEA-γGlu-C18 diacid])-NH2; disulfide 2-7) | 50 to 500 |
| CC(=O)NCCCC[C@@H]1NC(=O)[C@H](Cc2c[nH]c3c(C)cccc23)NC(=O)[C@H]([C@@H](C)O)NC(=O)[C@H](CCCCNC(=O)CCC(=O)N[C@H](CC(=O)O)C[N+](C)(C)C)NC(=O)[C@@H](NC(=O)[C@@H](CCCNC(=N)N)NC(=O)COCCOCCNC(=O)COCCOCCNC(=O)CC[C@H](NC(=O)CCCCCCCCCCCCCCCCC(=O)O)C(=O)O)C(C)(C)SSC(C)(C)[C@@H](C(=O)N[C@@H](Cc2ccc(OCCN)cc2)C(=O)N[C@@H](Cc2ccc3ccccc3c2)C(=O)NC2(C(=O)N[C@@H](CCC(=O)O)C(=O)N[C@@H](CC(N)=O)C(=O)N[C@@H](Cc3cccnc3)C(=O)N(C)CC(N)=O)CCOCC2)NC1=O [compound 47, HOC18gEPEG2PEG2CO-r-Pen(3)-K(d)-T-7MeW-K(Ac)-Pen(3)-AEF-2Nal-THP-E-N-3Pya-Sar-CONH2] ({C18 diacid-γGlu-AEEA-AEEA}-[dR][Pen]K([Suc-X2])T[Trp(7-Me)]K(Ac)[Pen][AEF][2Nal][Thp]EN[3Pal][Sar]-NH2; disulfide 2-7) | < 50 |
| CC(=O)N(C)CCCC[C@@H]1NC(=O)[C@H](Cc2c[nH]c3c(C)cccc23)NC(=O)[C@H]([C@@H](C)O)NC(=O)[C@H](CC(=O)N(C)C)NC(=O)[C@@H](NC(=O)[C@H](CCCCNC(=O)COCCOCCNC(=O)COCCOCCNC(=O)CC[C@H](NC(=O)CCCCCCCCCCCCCCCCC(=O)O)C(=O)O)NC(=O)CCOCCOCC[N+](C)(C)C)C(C)(C)SSC(C)(C)[C@@H](C(=O)N[C@@H](Cc2ccc(OCCN)cc2)C(=O)N[C@@H](Cc2ccc3ccccc3c2)C(=O)NC2(C(=O)N[C@@H](CCCCN(C)C(C)=O)C(=O)N[C@@H](CC(N)=O)C(=O)N[C@@H](Cc3cccnc3)C(=O)N(C)CC(N)=O)CCOCC2)NC1=O [compound 68, cPEG3aCO-K(PEG2PEG2gEC18OH)-Pen(3)-N(N(Me)2)-T-7MeW-K(NMeAc)-Pen(3)-AEF-2Nal-THP-K(NMeAc)-N-3Pya-Sar-CONH2] ({Me3N+(CH2)2O(CH2)2O(CH2)2CO}-K([AEEA-AEEA-γGlu-C18 diacid])[Pen]D(NMe2)T[Trp(7-Me)][Lys(Me)](Ac)[Pen][AEF][2Nal][Thp][Lys(Me)](Ac)N[3Pal][Sar]-NH2; disulfide 2-7) | ≥ 500 |
| CC(=O)NCCCC[C@@H]1NC(=O)[C@H](Cc2c[nH]c3c(C)cccc23)NC(=O)[C@H]([C@@H](C)O)NC(=O)[C@H](CC(N)=O)NC(=O)[C@@H](NC(=O)[C@@H](CCCNC(=N)N)NC(C)=O)C(C)(C)SSC(C)(C)[C@@H](C(=O)N[C@@H](Cc2ccc(OCCCCC[N+](C)(C)C)cc2)C(=O)N[C@@H](Cc2ccc3ccccc3c2)C(=O)NC2(C(=O)N[C@@H](CCC(=O)O)C(=O)N[C@@H](CC(N)=O)C(=O)N[C@@H](Cc3cccnc3)C(=O)N(C)CC(=O)N[C@@H](CCCCNC(=O)COCCOCCNC(=O)COCCOCCNC(=O)CC[C@H](NC(=O)CCCCCCCCCCCCCCCCC(=O)O)C(=O)O)C(N)=O)CCOCC2)NC1=O [compound 69, MeCO-r-Pen(3)-N-T-7MeW-K(Ac)-Pen(3)-TMAPF-2Nal-THP-E-N-3Pya-Sar-K(PEG2PEG2C18OH)-CONH2] (Ac-[dR][Pen]NT[Trp(7-Me)]K(Ac)[Pen]Y(X1)[2Nal][Thp]EN[3Pal][Sar]K([AEEA-AEEA-γGlu-C18 diacid])-NH2; disulfide 2-7) | 50 to 500 |
| CC(=O)NCCCC[C@@H]1NC(=O)[C@H](Cc2c[nH]c3c(C)cccc23)NC(=O)[C@H]([C@@H](C)O)NC(=O)[C@H](CC(N)=O)NC(=O)[C@@H](NC(C)=O)C(C)(C)SSC(C)(C)[C@@H](C(=O)N[C@@H](Cc2ccc(OCCN)cc2)C(=O)N[C@@H](Cc2ccc3ccccc3c2)C(=O)NC2(C(=O)N[C@@H](CCC(=O)O)C(=O)N[C@@H](CC(N)=O)C(=O)N[C@@H](Cc3cccnc3)C(=O)N(C)CC(=O)N[C@@H](CCCCNC(=O)COCCOCCNC(=O)COCCOCCNC(=O)CC[C@H](NC(=O)CCCCCCCCCCCCCCCCCCC(=O)O)C(=O)O)C(=O)NCCOCCOCC[N+](C)(C)C)CCOCC2)NC1=O [compound 93, MeCO-Pen(3)-N-T-7MeW-K(Ac)-Pen(3)-AEF-2Nal-THP-K(Ac)-N-3Pya-Sar-K(PEG2PEG2gEC20OH)-CONH(PEG3a)] | 50 to 500 |
| CC(=O)N(C)CCCC[C@@H]1NC(=O)[C@H](Cc2c[nH]c3c(C)cccc23)NC(=O)[C@H]([C@@H](C)O)NC(=O)[C@H](CC(=O)N(C)C)NC(=O)[C@@H](NC(=O)CCOCCOCCOCCOCCOCCOCCOCCOCCOCCOCCOCCOCCNC(=O)CC[C@H](NC(=O)CCCCCCCCCCCCCCCCCCC(=O)O)C(=O)O)C(C)(C)SSC(C)(C)[C@@H](C(=O)N[C@@H](Cc2ccc(OCCCCC[N+](C)(C)C)cc2)C(=O)N[C@@H](Cc2ccc3ccccc3c2)C(=O)NC2(C(=O)N[C@@H](CCCCN(C)C(C)=O)C(=O)N[C@@H](CC(N)=O)C(=O)N[C@@H](Cc3cccnc3)C(=O)N(C)CC(=O)N(C)C)CCOCC2)NC1=O [compound 94, HOC20gEPEG12CO-Pen(3)-N(N(Me)2)-T-7MeW-K(NMeAc)-Pen(3)-TMAPF-2Nal-THP-K(NMeAc)-N-3Pya-Sar-CON(Me)2] ({C20 diacid-γGlu-PEG12}-[Pen]D(NMe2)T[Trp(7-Me)][Lys(Me)](Ac)[Pen]Y(X1)[2Nal][Thp][Lys(Me)](Ac)N[3Pal][Sar]-NMe2; disulfide 1-6) | < 50 |
| CC(=O)NCCCC[C@@H]1NC(=O)[C@H](Cc2c[nH]c3c(C)cccc23)NC(=O)[C@H]([C@@H](C)O)NC(=O)[C@H](CC(N)=O)NC(=O)[C@@H](NC(C)=O)C(C)(C)SSC(C)(C)[C@@H](C(=O)N[C@@H](Cc2ccc(OCCN)cc2)C(=O)N[C@@H](Cc2ccc3ccccc3c2)C(=O)NC2(C(=O)N[C@@H](CCC(=O)O)C(=O)N[C@@H](CC(N)=O)C(=O)N[C@@H](Cc3cccnc3)C(=O)N(C)CC(=O)NCCOCCOCCOCCOCCOCCOCCOCCOCCOCCOCCOCCOCCNC(=O)CC[C@H](NC(=O)CCCCCCCCCCCCCCCCC(=O)O)C(=O)O)CCOCC2)NC1=O [compound 135, MeCO-Pen(3)-N-T-7MeW-K(Ac)-Pen(3)-AEF-2Nal-THP-E-N-3Pya-Sar-CO(PEG12gEC18OH)] | 50 to 500 |
